Measurements reported in paper PMC4821887, “Identification of chemicals that mimic transcriptional changes associated with autism, brain aging and neurodegeneration” (Nature Communications, 2016).

Tested on: mouse cortical cultures
Test: RNA-seq differential expression (DESeq) against matched vehicle
Assay type: cell-based
Set-up: key to MeanFenamidone Bcl11b / MeanFenamidone Slc12a4 / MeanFenamidone Abca1 / MeanFenamidone Hmox1 / MeanFenamidone Il1rap / MeanFenamidone Cyba / MeanFenamidone Narf / MeanFenamidone Bnip3 / MeanFenamidone Amotl2 / MeanFenamidone Gad2 / MeanFenamidone Vsnl1 / MeanFenamidone Fam178a: DESeq mean of counts over RefSeq exons
Conditions: for MeanFenamidone (DESeq mean normalized counts): Fenamidone, vs matched vehicle
Experimental: Figure 4 Cluster 2 chemicals alter expression of a common set of genes. […] RNA-seq was performed in quadruplicate after treating cortical cultures with fenamidone (10 μM) or pyraclostrobin (0.1 μM) for 24 h (n=3 biological replicates) and compared with matched vehicle controls using DESeq to detect differentially expressed genes, listed in Supplementary Data 4.
Cultures were treated with the non-cytotoxic dose of each chemical, by exchanging half of the original medium with chemicals at 2 × concentration in prewarmed feeding medium, on DIV 7 for 24 h in 12-well plates at a density of 5 × 10^5 cells per well. RNA was isolated using RNeasy plus mini kit (Cat. #74134, Qiagen). […]. Samples were further assessed for quality using either an Agilent Bioanalyzer 2100 or TapeStation 2200 to obtain a RIN. RIN values exceeding 7 were used for sequencing. RNA samples were used to generate and barcode complementary DNA libraries using the TruSeq RNA Library Preparation Kit at the UNC High Throughput Sequencing Facility. Pools of 24 multiplexed samples were sequenced per lane on an Illumina HiSeq 2500 using 50-bp paired-end reads.
RNA-seq reads were filtered using TagDust and aligned to the reference mouse genome (mm9) with TopHat using default parameters. Reads aligning to ribosomal RNA genes were removed. Transcript abundance was estimated by computing Reads per kilobase per million mapped reads (RPKM) using RefSeq gene models aggregated by gene symbol. For differential expression analyses, raw counts over RefSeq exons were used, and then were compared across samples using DESeq[62].

Compound: CSC1=N[C@@](C)(c2ccccc2)C(=O)N1Nc1ccccc1 [fenamidone]
- log2FoldChange (gene Prss23): 2.578
- MeanFenamidone Ptpn14 (gene Ptpn14, DESeq mean, 4 reps): 536.253
- log2FoldChange Ptpn14 (gene Ptpn14, vs vehicle, 4 reps): 2.06
- MeanFenamidone (gene Ptpro): 128.9
- log2FoldChange (gene Ptpro): -1.349
- MeanFenamidone (gene Rab6b): 1528.43
- log2FoldChange (gene Rab6b): -1.231
- MeanFenamidone Rian (gene Rian, DESeq mean, 4 reps): 479.419
- log2FoldChange Rian (gene Rian, vs vehicle, 4 reps): -1.772
- MeanFenamidone Rimkla (gene Rimkla, DESeq mean, 4 reps): 54.5497
- log2FoldChange Rimkla (gene Rimkla, vs vehicle, 4 reps): -1.586
- MeanFenamidone Rph3a (gene Rph3a, DESeq mean, 4 reps): 62.2069
- log2FoldChange Rph3a (gene Rph3a, vs vehicle, 4 reps): -2.0001
- MeanFenamidone (gene Rsu1): 240.928
- log2FoldChange (gene Rsu1): 1.174
- MeanFenamidone Samd4 (gene Samd4, DESeq mean, 4 reps): 336.652
- log2FoldChange Samd4 (gene Samd4, vs vehicle, 4 reps): 1.621
- MeanFenamidone Scn2a1 (gene Scn2a1, DESeq mean, 4 reps): 402.156
- log2FoldChange Scn2a1 (gene Scn2a1, vs vehicle, 4 reps): -1.491
- MeanFenamidone Sdc1 (gene Sdc1, DESeq mean, 4 reps): 327.963
- log2FoldChange Sdc1 (gene Sdc1, vs vehicle, 4 reps): 1.6746
- MeanFenamidone (gene Sdc3): 1856.44
- log2FoldChange (gene Sdc3): -1.095
- MeanFenamidone Serpine2 (gene Serpine2, DESeq mean, 4 reps): 777.193
- log2FoldChange Serpine2 (gene Serpine2, vs vehicle, 4 reps): 1.421
- MeanFenamidone (DESeq mean normalized counts) (gene Serpinf1, 4 reps): 51.7434
- MeanFenamidone Serpini1 (gene Serpini1, DESeq mean, 4 reps): 255.176
- log2FoldChange Serpini1 (gene Serpini1, vs vehicle, 4 reps): -1.567
- MeanFenamidone (gene Sgpl1): 504.223
- log2FoldChange (gene Sgpl1): 1.381
- MeanFenamidone Shank1 (gene Shank1, DESeq mean, 4 reps): 288.972
- log2FoldChange Shank1 (gene Shank1, vs vehicle, 4 reps): -1.584
- MeanFenamidone (gene Shmt2): 164.927
- log2FoldChange (gene Shmt2): 1.37
- MeanFenamidone Slc3a2 (gene Slc3a2, DESeq mean, 4 reps): 1206
- log2FoldChange Slc3a2 (gene Slc3a2, vs vehicle, 4 reps): 1.496
- MeanFenamidone (gene Slc4a2): 227.842
- log2FoldChange (gene Slc4a2): 1.898
- MeanFenamidone Slc5a3 (gene Slc5a3, DESeq mean, 4 reps): 905.314
- log2FoldChange Slc5a3 (gene Slc5a3, vs vehicle, 4 reps): 1.342
- MeanFenamidone Slc8a3 (gene Slc8a3, DESeq mean, 4 reps): 22.3077
- log2FoldChange Slc8a3 (gene Slc8a3, vs vehicle, 4 reps): -2.167
- MeanFenamidone Slc12a4 (gene Slc12a4, DESeq mean, 4 reps): 353.466
- log2FoldChange Slc12a4 (gene Slc12a4, vs vehicle, 4 reps): 2.575
- MeanFenamidone Slc12a5 (gene Slc12a5, DESeq mean, 4 reps): 198.315
- log2FoldChange Slc12a5 (gene Slc12a5, vs vehicle, 4 reps): -1.614
- MeanFenamidone (gene Slc12a7): 123.511
- log2FoldChange (gene Slc12a7): 2.012
- MeanFenamidone Slc32a1 (gene Slc32a1, DESeq mean, 4 reps): 76.5704
- log2FoldChange Slc32a1 (gene Slc32a1, vs vehicle, 4 reps): -1.6789
- MeanFenamidone (gene Slit2): 473.475
- log2FoldChange (gene Slit2): 1.336
- MeanFenamidone (gene Slitrk3): 59.0221
- log2FoldChange (gene Slitrk3): -1.399
- MeanFenamidone Smpd3 (gene Smpd3, DESeq mean, 4 reps): 450.951
- log2FoldChange Smpd3 (gene Smpd3, vs vehicle, 4 reps): -1.523
- MeanFenamidone (gene Snap91): 577.837
- log2FoldChange (gene Snap91): -1.2276
- MeanFenamidone Snx33 (gene Snx33, DESeq mean, 4 reps): 193.085
- log2FoldChange Snx33 (gene Snx33, vs vehicle, 4 reps): 2.21
- MeanFenamidone (gene Sorl1): 374.526
- log2FoldChange (gene Sorl1): 1.703
- MeanFenamidone Spock3 (gene Spock3, DESeq mean, 4 reps): 49.3806
- log2FoldChange Spock3 (gene Spock3, vs vehicle, 4 reps): -2.6448
- MeanFenamidone Sprn (gene Sprn, DESeq mean, 4 reps): 108.373
- log2FoldChange Sprn (gene Sprn, vs vehicle, 4 reps): -1.675
- MeanFenamidone Srxn1 (gene Srxn1, DESeq mean, 4 reps): 1016.41
- log2FoldChange Srxn1 (gene Srxn1, vs vehicle, 4 reps): 2.241
- MeanFenamidone (gene Ssc5d): 60.5262
- log2FoldChange (gene Ssc5d): 1.812
- MeanFenamidone Ssfa2 (gene Ssfa2, DESeq mean, 4 reps): 339.098
- log2FoldChange Ssfa2 (gene Ssfa2, vs vehicle, 4 reps): 1.684
- MeanFenamidone (gene St8sia1): 138.691
- log2FoldChange (gene St8sia1): -1.185
- MeanFenamidone St8sia3 (gene St8sia3, DESeq mean, 4 reps): 218.799
- log2FoldChange St8sia3 (gene St8sia3, vs vehicle, 4 reps): -1.589
- MeanFenamidone (gene St8sia4): 83.2874
- log2FoldChange (gene St8sia4): -1.239
- MeanFenamidone (gene Sult4a1): 337.631
- log2FoldChange (gene Sult4a1): -1.1579
- MeanFenamidone Sv2b (gene Sv2b, DESeq mean, 4 reps): 206.444
- log2FoldChange Sv2b (gene Sv2b, vs vehicle, 4 reps): -1.8053
- MeanFenamidone (DESeq mean normalized counts) (gene Svil, 4 reps): 63.1892
- MeanFenamidone Syn2 (gene Syn2, DESeq mean, 4 reps): 290.905
- log2FoldChange Syn2 (gene Syn2, vs vehicle, 4 reps): -1.354
- MeanFenamidone Syp (gene Syp, DESeq mean, 4 reps): 891.603
- log2FoldChange Syp (gene Syp, vs vehicle, 4 reps): -1.4647
- MeanFenamidone Syt1 (gene Syt1, DESeq mean, 4 reps): 825.321
- log2FoldChange Syt1 (gene Syt1, vs vehicle, 4 reps): -1.819
- MeanFenamidone Tagln (gene Tagln, DESeq mean, 4 reps): 2032.34
- log2FoldChange Tagln (gene Tagln, vs vehicle, 4 reps): 3.012
- MeanFenamidone Tead1 (gene Tead1, DESeq mean, 4 reps): 925.254
- log2FoldChange Tead1 (gene Tead1, vs vehicle, 4 reps): 2.035
- MeanFenamidone Tgfb2 (gene Tgfb2, DESeq mean, 4 reps): 420.529
- log2FoldChange Tgfb2 (gene Tgfb2, vs vehicle, 4 reps): 1.82
- MeanFenamidone Tgfb3 (gene Tgfb3, DESeq mean, 4 reps): 398.538
- log2FoldChange Tgfb3 (gene Tgfb3, vs vehicle, 4 reps): 2.304
- MeanFenamidone Thbs1 (gene Thbs1, DESeq mean, 4 reps): 3138.32
- log2FoldChange Thbs1 (gene Thbs1, vs vehicle, 4 reps): 2.61
- MeanFenamidone Tln1 (gene Tln1, DESeq mean, 4 reps): 658.354
- log2FoldChange Tln1 (gene Tln1, vs vehicle, 4 reps): 2.579
- MeanFenamidone Tmbim1 (gene Tmbim1, DESeq mean, 4 reps): 170.347
- log2FoldChange Tmbim1 (gene Tmbim1, vs vehicle, 4 reps): 2.378
- MeanFenamidone (gene Tmem181b-ps): 77.9777
- log2FoldChange (gene Tmem181b-ps): -1.325
- MeanFenamidone (gene Tmem229b): 256.203
- log2FoldChange (gene Tmem229b): -1.123
- MeanFenamidone Tnc (gene Tnc, DESeq mean, 4 reps): 998.798
- log2FoldChange Tnc (gene Tnc, vs vehicle, 4 reps): 2.934
- MeanFenamidone Tnfrsf10b (gene Tnfrsf10b, DESeq mean, 4 reps): 126.269
- log2FoldChange Tnfrsf10b (gene Tnfrsf10b, vs vehicle, 4 reps): 2.1709
- MeanFenamidone Tnfrsf12a (gene Tnfrsf12a, DESeq mean, 4 reps): 307.752
- log2FoldChange Tnfrsf12a (gene Tnfrsf12a, vs vehicle, 4 reps): 3.087
- MeanFenamidone (gene Tns1): 238.258
- log2FoldChange (gene Tns1): 2.58
- MeanFenamidone Tpm4 (gene Tpm4, DESeq mean, 4 reps): 930.727
- log2FoldChange Tpm4 (gene Tpm4, vs vehicle, 4 reps): 1.809
- MeanFenamidone Tpp1 (gene Tpp1, DESeq mean, 4 reps): 440.575
- log2FoldChange Tpp1 (gene Tpp1, vs vehicle, 4 reps): 1.842
- MeanFenamidone (gene Tro): 343.733
- log2FoldChange (gene Tro): -1.218
- MeanFenamidone (gene Tspyl4): 870.895
- log2FoldChange (gene Tspyl4): -1.118
- MeanFenamidone Tuba4a (gene Tuba4a, DESeq mean, 4 reps): 131.218
- log2FoldChange Tuba4a (gene Tuba4a, vs vehicle, 4 reps): -1.604
- MeanFenamidone Tubb6 (gene Tubb6, DESeq mean, 4 reps): 522.566
- log2FoldChange Tubb6 (gene Tubb6, vs vehicle, 4 reps): 2.127
- MeanFenamidone Tuft1 (gene Tuft1, DESeq mean, 4 reps): 71.0226
- log2FoldChange Tuft1 (gene Tuft1, vs vehicle, 4 reps): 2.58
- MeanFenamidone Txnrd1 (gene Txnrd1, DESeq mean, 4 reps): 1365.85
- log2FoldChange Txnrd1 (gene Txnrd1, vs vehicle, 4 reps): 1.713
- MeanFenamidone Uap1l1 (gene Uap1l1, DESeq mean, 4 reps): 115.372
- log2FoldChange Uap1l1 (gene Uap1l1, vs vehicle, 4 reps): 2.463
- MeanFenamidone (gene Vash1): 501.714
- log2FoldChange (gene Vash1): -1.142
- MeanFenamidone Vasn (gene Vasn, DESeq mean, 4 reps): 270.313
- log2FoldChange Vasn (gene Vasn, vs vehicle, 4 reps): 2.194
- MeanFenamidone Vcl (gene Vcl, DESeq mean, 4 reps): 498.388
- log2FoldChange Vcl (gene Vcl, vs vehicle, 4 reps): 2.095
- MeanFenamidone Vgll3 (gene Vgll3, DESeq mean, 4 reps): 231.289
- log2FoldChange Vgll3 (gene Vgll3, vs vehicle, 4 reps): 2.348
- MeanFenamidone (gene Vim): 6511.9
- log2FoldChange (gene Vim): 1.994
- MeanFenamidone Vsnl1 (gene Vsnl1, DESeq mean, 4 reps): 216.784
- log2FoldChange Vsnl1 (gene Vsnl1, vs vehicle, 4 reps): -1.6854
- MeanFenamidone Wls (gene Wls, DESeq mean, 4 reps): 676.758
- log2FoldChange Wls (gene Wls, vs vehicle, 4 reps): 1.397
- MeanFenamidone Wnk1 (gene Wnk1, DESeq mean, 4 reps): 1955.12
- log2FoldChange Wnk1 (gene Wnk1, vs vehicle, 4 reps): 1.378
- MeanFenamidone Xkr4 (gene Xkr4, DESeq mean, 4 reps): 97.5483
- log2FoldChange Xkr4 (gene Xkr4, vs vehicle, 4 reps): -1.595
- MeanFenamidone (gene Zak): 216.098
- log2FoldChange (gene Zak): 1.697
- MeanFenamidone (gene Zbtb7b): 137.122
- log2FoldChange (gene Zbtb7b): 2.108
- MeanFenamidone Zfp36l2 (gene Zfp36l2, DESeq mean, 4 reps): 339.831
- log2FoldChange Zfp36l2 (gene Zfp36l2, vs vehicle, 4 reps): 2.067
